Patent EP2608671B1, “COMPOUNDS FOR TREATMENT OF CANCER” (Gtx, Inc., priority 2010, dated 2012)
Read-outs that look alike come from different tables or passages of the source.

Assays:
LNCaP [1] = assay: cells; conditions: Homo sapiens, 96 h, read-out: IC50 ± SEM (nM), LNCaP
DU 145 [2] = assay: cells; conditions: Homo sapiens, DU-145, 96 h
PC-3 = assay: cells
From the text: (§1) The only compounds which belong to the invention are the ones falling under the scope of formula (XI).
Cells were stained with SRB solution.
Cells. […] Cells between the third and fifth passages were used for experiments.
Cell growth inhibition studies. […] Cells were stained with sulphorhodamine B (SRB) solution.

B16-F1 = assay: SRB cell growth inhibition (cytotoxicity) assay; format: cell-based, mouse
From the text: as §1

NCI/ADR-RES = assay: SRB growth inhibition, P-gp over-expressing MDR line; format: cell-based, human; conditions: for IC50: Homo sapiens, NCI/ADR-RES, P-gp over-expressed MDR cell line, Table 5A, read-out: IC50 (nM), NCI/ADR-RES; for Resistance factor: NCI/ADR-RES vs OVCAR-8, 5760 min
OVCAR-8 = assay: SRB growth inhibition, MDR model parent line; format: cell-based, human; conditions: Homo sapiens, OVCAR-8; Table 5A; read-out: IC50 (nM), OVCAR-8
PPC-1 [3] = assay: cells; conditions: Homo sapiens, PPC-1, 96 h, read-out: IC50 ± SEM (nM), PPC-1
A375 = assay: SRB cell growth inhibition (cytotoxicity) assay; format: cell-based, human
[4] = tested on: melanoma cell lines (A375, WM-164, B16-F1) and prostate cancer cell lines (LNCaP, DU 145, PC-3, PPC-1); assay: SRB cytotoxicity, melanoma and prostate cell panel (averages); format: cell-based; conditions: Prostate cell
From the text: as §1

WM-164 = assay: SRB cell growth inhibition (cytotoxicity) assay; format: cell-based, human; conditions: Homo sapiens, WM164; SRB assay, 96 h; Table 2; read-out: IC50 ± SEM (nM), WM-164
Bovine brain tubulin = assay: In vitro tubulin polymerization assay; format: biochemical; conditions: 10 µM; for tubulin polymerization inhibited: 20 min incubation, compared to vehicle
From the text: (§2) In Vitro Tubulin Polymerization Assay.
as §2
In vitro microtubule polymerization assay.

[5] = tested on: PC-3 prostate tumor xenograft; assay: In vivo antitumor efficacy, PC-3 xenograft; set-up: species or system mouse; conditions: PC-3, 50 mg/kg i.p.; control 680 mm^3
From the text: PC-3 and A375 tumor xenograft studies.
In vivo antitumor activity [tumor growth inhibition (% T/C), tumor growth delay (T-C value), and tumor cell kill (total log cell kill)].

PPC-1 [6] = conditions: read-out: IC50 ±SEM (nM), PPC-1; Table 6
DU 145 [7] = conditions: read-out: IC50 ±SEM (nM), DU 145; Table 6
LNCaP [8] = conditions: read-out: IC50 ±SEM (nM), LNCaP; Table 6
MDA-MB-435 = assay: SRB growth inhibition, sensitive parent melanoma line; format: cell-based; conditions: Homo sapiens, MDA-MB-435, read-out: IC50 ± SEM (nM) (n=3), MDA-MB-435; sensitive parent melanoma cell line
MDA-MB-435/LCC6MDR1 = assay: SRB growth inhibition, multidrug-resistant melanoma line; format: cell-based; conditions: MDA-MB-435/LCC6 MDR1, read-out: IC50 ± SEM (nM) (n=3), MDA-MB-435/LCC6MDR1; multidrug-resistant melanoma cell line
[9] = read-out: IC50 ± SEM (nM), DU 145
[10] = Homo sapiens, PC-3, 96 h, read-out: IC50 ± SEM (nM), PC-3
[11] = Mus musculus, B16-F1, read-out: IC50 ± SEM (nM), B16-F1
[12] = Homo sapiens, A-375, 96 h, read-out: IC50 ± SEM (nM), A375
[13] = summary of Tables 2, 3, 21, read-out: IC50 range over tested melanoma and prostate cell lines
[14] = read-out: IC50 ±SEM (nM), PC-3, Table 6
[15] = Table 6, read-out: IC50 ±SEM (nM), B16-F1
[16] = Table 6, read-out: IC50 ±SEM (nM), A375

SMILES | IC50 (LNCaP [1]) | IC50 (DU 145 [2]; [9]) | IC50 (PC-3; [10]) | IC50 (B16-F1; [11]) | IC50 (PPC-1 [3]) | IC50 (A375; [12]) | IC50 (PPC-1 [6]) | IC50 (DU 145 [7]) | IC50 (PC-3; [14]) | IC50 (B16-F1; [15]) | IC50 (A375; [16]) | further results
COc1cc(C(=NC#N)c2csc(-c3ccccc3)n2)cc(OC)c1OC [2j, N-((2-phenylthiazol-4-yl)(3,4,5-trimethoxyphenyl)methylene)cyanamide] | 23 ± 2 nM | 42 ± 2 nM | 27 ± 1 nM | 60 ± 21 nM | 20 ± 1 nM | 28 ± 12 nM | – | – | – | – | – | IC50 (NCI/ADR-RES): 14 ± 1 nM; Resistance factor (NCI/ADR-RES): 0.4; IC50 (OVCAR-8): 34 ± 2 nM; IC50 [4, 13]: 20 to 60 nM; IC50 (WM-164): 27 ± 13 nM; tubulin polymerization inhibited (Bovine brain tubulin): 64%
COc1cc(C(=O)c2csc(-c3ccc(O)cc3)n2)cc(OC)c1OC [2l, (2-(4-Hydroxyphenyl)thiazol-4-yl)(3,4,5-trimethoxyphenyl)methanone] | 103 nM | 116 nM | 87 nM | 110 nM | 76 nM | 100 nM | – | – | – | – | – | Tumor volume at day 21 [5]: 331 mm^3; IC50 [4, 13]: 76 to 116 nM; inhibited tubulin polymerization (Bovine brain tubulin; 15 min, Figure 28B): 55%
COc1cc(C(=O)c2csc(-c3ccc(C)cc3)n2)cc(OC)c1OC [2m] | – | – | – | – | – | – | 6.2 nM | 6.9 nM | 8.7 nM | 21 nM | 11 nM | –
COc1cc(C(=O)c2csc(-c3cc(F)c(F)c(F)c3)n2)cc(OC)c1OC [2p] | – | – | – | – | – | – | 1080 nM | 1900 nM | 2380 nM | 16600 nM | 2200 nM | IC50 (LNCaP [8]): > 10000 nM
COc1cc(C(=O)c2csc(-c3ccc(CC(N)=O)cc3)n2)cc(OC)c1OC [2q] | – | – | – | – | – | – | > 10000 nM | > 10000 nM | > 10000 nM | > 20000 nM | > 20000 nM | IC50 (LNCaP [8]): > 10000 nM
COc1cc(C(=O)c2csc(Nc3ccccc3)n2)cc(OC)c1OC [5a, (2-(Phenylamino)thiazol-4-yl)(3,4,5-trimethoxyphenyl)methanone] | 51 ± 1 nM | 70 ± 4 nM | 57 ± 3 nM | 65 ± 12 nM | 54 ± 1 nM | 45 ± 8 nM | – | – | – | – | – | IC50 (NCI/ADR-RES): 27 nM; Resistance factor (NCI/ADR-RES): 0.6; IC50 (OVCAR-8): 46 ± 6 nM; tubulin polymerization inhibited (Bovine brain tubulin): 78%
COc1ccc(-c2nc(C(=O)c3ccc(F)cc3)cn2S(=O)(=O)c2ccccc2)cc1 [11cb, (4-fluorophenyl)(2-(4-methoxyphenyl)-1-(phenylsulfonyl)-1H-imidazol-4-yl)methanone] | 31 ± 2 nM | – | 33 ± 2 nM | – | 32 ± 0.7 nM | – | – | – | – | – | – | IC50 (DU 145 [2]; read-out: IC50 ± SEM (nM) Du 145): 52 ± 3 nM; IC50 (MDA-MB-435): 38 nM; IC50 (B16-F1; Mus musculus, B16-F1, read-out: IC50 ± SEM (nM) (n=3), B16-F1, Table 14A): 71 ± 8 nM; IC50 (B16-F1; Mus musculus, B16-F1 melanoma cells, 48 h, SRB, read-out: IC50 ± SEM (nM) B16-F1): 71 ± 8 nM; IC50 (A375; Homo sapiens, A-375, read-out: IC50 ± SEM (nM) (n=3), A375, Table 14A): 36 ± 5 nM; IC50 (A375; Homo sapiens, A-375, A375 melanoma cells, 48 h, SRB, read-out: IC50 ± SEM (nM) A375): 36 ± 5 nM; IC50 ([4]; read-out: IC50 (average over cell lines)): 43 nM; IC50 (MDA-MB-435/LCC6MDR1): 30 nM
